Laboratory results published in patent US6596764B1, “Method of preparing diacetyl rhein” (Laboratoire Medidom S.A., priority 1991, dated 2003).

Columns and labels:
[1] = tested on: cotton pellet granuloma; assay: Cotton pellet granuloma in rats (chronic inflammation model, oral administration); format: in vivo, rat
Description: The effectiveness of diacetylrhein was determined in chronic inflammation models after oral administration. The following experimental models were used: cotton pellet granuloma in rats and arthrosis in rabbits induced by the intraarticular administration of vitamin A. a) Cotton pellet granuloma in rats. Young sexually mature rats (n=10) were given 25, 50 or 100 mg diacetylrhein/kg or 5 mg indomethacin/kg or 100 mg acetylsalicylic acid/kg daily for 5 days. A control group only treated with water was also used. Implantation of the pellets took place on the first day of treatment.

[2] = tested on: arthrosis in rabbits induced by the intraarticular administration of vitamin A; assay: Vitamin A arthrosis in rabbits (chronic inflammation model, oral administration); format: in vivo, rabbit (white New Zealanders); conditions: for clinical signs of arthrosis (disturbances of movement, dragging of the rear legs): 7 rabbits
Description: The effectiveness of diacetylrhein was determined in chronic inflammation models after oral administration.
The following experimental models were used: cotton pellet granuloma in rats and arthrosis in rabbits induced by the intraarticular administration of vitamin A.
An arthrosis-like joint change was initiated in two groups each of 10 rabbits (white New Zealanders) by means of three intraarticular injections of 30,000 IU of vitamin A over the course of 9 days. 56 days later, 10 animals were treated with 3 mg of diacetylrhein/kg/day for 8 weeks.
Furthermore, the curative action of diacetylrhein was compared with that of acetylsalicylic acid on each of 7 rabbits which, after 6 days pre-treatment with three times 10,000 IU vitamin A and a 26 day treatment-free interval for 8 weeks, received either 5 mg of diacetylrhein/kg/day (experimental group), 15 mg of acetylsalicylic acid/kg/day (positive control group) or remained untreated (negative control group). […] In the negative control group, during the following 8 weeks, the clinical signs of a manifest arthrosis increased.

[3] = tested on: gastric mucosa; assay: Gastric mucosa changes in the rat; format: in vivo
[4] = in vivo; conditions: rat, mouse, cat
[5] = tested on: coxarthrosis and gonarthrosis; assay: Clinical double-blind study against naproxen with subsequent placebo after-treatment; format: in vivo, human; conditions: for improvement of all test parameters (pain and movement symptoms score, function limitation, compatibility) vs initial values: patients, 60 days
Description: 1. The action of diacetylrhein was investigated in coxarthrosis and gonarthrosis in 95 (49/46) patients in a double-blind study against naproxen and subsequent placebo after-treatment. The dosage administered was 50 mg of diacetylrhein twice daily or 750 mg of naproxen daily. The period of treatment was 60 days after a 7 day wash-out phase. The subsequent placebo treatment extended over 60 days. Test parameters were the pain and movement symptoms according to a score scale, function limitation and compatibility.

[6] = tested on: osteoarthrosis of the spine and of the knee; assay: Clinical open running study with control (physiotherapy); format: in vivo, human
Description: 2. In an open running study with control, there was investigated the action of diacetylrhein against osteoarthrosis of the spine and of the knee in 70 patients (35/35). The dosage administered was 100 mg of diacetylrhein per day. The period of treatment was 60 days and the period of observation was 75 days. The test parameters were pain and movement limitation. The parameters were evaluated according to a score system. The control group comprised 35 patients in the case of which exclusively physiotherapeutic measures were carried out. Physiotherapy was also carried out in the diacetylrhein treatment group.

[7] = tested on: localised arthrosis; assay: Clinical single blind crossover study against naproxen; format: in vivo, human; conditions: 20 patients
Description: 3. The action of diacetylrhein in the case of localised arthrosis in 20 patients was investigated in a single blind crossover study against naproxen. The patients were divided up into two groups: in the first group, initially 50 mg of diacetylrhein was administered twice daily for 20 days. Subsequently, there followed a three day wash-out phase and a further treatment with 250 mg of naproxen twice daily for a further 20 days. In the second group, the reverse sequence was used. The period of treatment was, in all, 43 days. The test parameters of pain, compression pain, passive movement pain, function limitation and swelling were determined according to a score system.

[8] = tested on: mucosal lesions in patients with osteoarthrosis; assay: Clinical randomised double blind double dummy compatibility study (oesophagogastroduodenoscopic findings); format: in vivo, human; conditions: after 4 weeks
Description: 4. The action of diacetylrhein was investigated in 23 patients (12/11) with osteoarthrosis in a randomised double blind study using the “double dummy technique” (compatibility study). The dosage administered was 50 mg of diacetylrhein twice daily and 250 mg of naproxen three times daily. The period of treatment was 4 weeks. The test parameters were then oesophagogastroduodenoscopic findings before and after the therapy. Only patients with normal mucosal findings or with slight mucosal lesions (grade 1) were used in the study.

[9] = crossover study, 43 days in all
[10] = 50 mg of diacetylrhein twice daily
[11] = 250 mg of naproxen three times daily

Compound: CC(=O)Oc1cccc2c1C(=O)c1c(OC(C)=O)cc(C(=O)O)cc1C2=O [diacetylrhein]
- Fresh and dry weights of the granuloma ([1]; rats (n=10), oral, 25, 50 or 100 mg diacetylrhein/kg daily for 5 days, in comparison with water-treated control group): significant and clearly dosage-dependent reduction
- action on granuloma weights compared with reference drugs ([1]; rats, oral, 100 mg diacetylrhein/kg daily for 5 days vs 5 mg indomethacin/kg or 100 mg acetylsalicylic acid/kg): corresponded to about the action of 5 mg indomethacin or of 100 mg acetylsalicylic acid
- weights of the thymus and adrenals ([1]; rats, oral, daily treatment for 5 days): did not change
- clinical signs of arthrosis (disturbances of movement, dragging of the rear legs) ([2]; 5 mg of diacetylrhein/kg/day for 8 weeks after 3 x 10,000 IU vitamin A and 26 day treatment-free interval): improved significantly
- macroscopically and microscopically recognisable joint changes ([2]; rabbits, 3 mg/kg/day for 8 weeks starting 56 days after 3 x 30,000 IU vitamin A, in comparison with control group): significantly reduced
- erosions of the gastric mucosa ([3]; single administration of 400 mg/kg): did not give rise to any erosions
- gastric mucosal damage ([3]; twice daily 100 mg/kg over the course of 3 days): did not initiate any mucosal damage
- LD50 [4]: 119 to 339 mg/kg
- LD50 ([4]; po): 1900 to 7900 mg/kg
- night pain and pressure pain after discontinuation, vs naproxen/placebo collective ([5]; 30 days after discontinuation of diacetylrhein, 5% level): difference was also verified
- spontaneous pain and active and passive movement pain after discontinuation, vs naproxen/placebo collective ([5]; days 90 and 120, under subsequent placebo, P<0.01): statistically significant superiority
- improvement of all test parameters (pain and movement symptoms score, function limitation, compatibility) vs initial values ([5]; 50 mg of diacetylrhein twice daily, P<0.01): statistically significant rate of improvement
- pain and movement limitation (score system), treatment group vs control group ([6]; 35/35 patients, 100 mg per day plus physiotherapy for 60 days vs physiotherapy only): statistically significant superiority
- effect after discontinuation of the treatment ([6]; period of observation 75 days, treatment 60 days, 100 mg per day): continuing therapeutic effect (hang-over effect)
- clinical laboratory parameters [7, 9]: no changes
- side effects [7, 9]: No noteworthy side effects
- pain, compression pain, passive movement pain, function limitation and swelling (score system), vs naproxen ([7]; crossover, 50 mg diacetylrhein twice daily 20 days vs 250 mg naproxen twice daily 20 days): superiority
- number of cases with mucosal lesions of grade 2 (endoscopic findings) [8, 10]: one
- share of patients with mucosal lesions of grade 2 (endoscopic findings) [8, 10]: 10%

Compound: COc1ccc2cc([C@H](C)C(=O)O)ccc2c1 [naproxen, reference compound]
- improvement of all test parameters (pain and movement symptoms score, function limitation, compatibility) vs initial values ([5]; 750 mg of naproxen daily, P<0.05): statistically significant rate of improvement
- number of patients with mucosal lesions of grade 2, 3 and 4 (endoscopic findings) [8, 11]: 5 patients
- share of patients with mucosal lesions of grade 2, 3 and 4 (endoscopic findings) [8, 11]: 50%

Compound: CC(=O)Oc1ccccc1C(=O)O [acetylsalicylic acid, reference compound]
- clinical signs of arthrosis (disturbances of movement, dragging of the rear legs) ([2]; 15 mg of acetylsalicylic acid/kg/day for 8 weeks (positive control group)): improved significantly
